Where two headings read alike, the source gives them in different places.
What was measured:
hTRPV1 [1] = molecular target: T1, hTRPV1 (Homo sapiens, UniProt Q8NER1); test: hTRPV1 antagonism, inhibition of activation by capsaicin; assay type: cell-based; settings: for hTRPV1 antagonism toward capsaicin (in words): hTRPV1 in CHO cells, capsaicin 100 nM; for inhibition at 5 µM: CHO, read-out: inhibition% at 5 μM
hTRPV1 [2] = molecular target: T1, hTRPV1; test: hTRPV1 antagonism, activation by heat; assay type: cell-based
hTRPV1 [3] = molecular target: T1, hTRPV1; settings: read-out: heat 45 °C, IC50; hTRPV1, activator heat 45 °C; previous lead; ref [9]; cited from earlier work

T1 sequence (Q8NER1 whole entry): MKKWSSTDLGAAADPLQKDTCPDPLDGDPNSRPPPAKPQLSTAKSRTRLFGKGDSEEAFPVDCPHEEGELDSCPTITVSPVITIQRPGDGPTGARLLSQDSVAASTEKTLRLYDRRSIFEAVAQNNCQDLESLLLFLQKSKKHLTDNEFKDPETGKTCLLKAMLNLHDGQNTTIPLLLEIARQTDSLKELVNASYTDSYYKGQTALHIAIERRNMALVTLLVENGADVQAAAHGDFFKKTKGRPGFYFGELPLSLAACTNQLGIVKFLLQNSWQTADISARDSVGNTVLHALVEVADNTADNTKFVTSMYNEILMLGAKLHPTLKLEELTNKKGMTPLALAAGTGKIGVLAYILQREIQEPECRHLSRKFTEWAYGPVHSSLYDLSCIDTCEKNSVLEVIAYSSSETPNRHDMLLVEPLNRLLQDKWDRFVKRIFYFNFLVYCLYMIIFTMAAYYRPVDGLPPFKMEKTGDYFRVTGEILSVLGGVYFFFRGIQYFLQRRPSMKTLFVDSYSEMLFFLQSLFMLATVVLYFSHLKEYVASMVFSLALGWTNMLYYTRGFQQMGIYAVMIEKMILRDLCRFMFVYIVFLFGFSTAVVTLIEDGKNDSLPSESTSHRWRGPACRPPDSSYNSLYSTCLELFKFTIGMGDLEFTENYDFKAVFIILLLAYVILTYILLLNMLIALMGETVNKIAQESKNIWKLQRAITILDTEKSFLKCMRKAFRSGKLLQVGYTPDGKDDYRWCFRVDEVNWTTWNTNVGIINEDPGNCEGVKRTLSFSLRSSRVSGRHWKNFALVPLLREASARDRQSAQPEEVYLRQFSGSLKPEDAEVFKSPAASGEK

| Structure (SMILES) | hTRPV1 antagonism toward capsaicin (in words) (hTRPV1 [1]) | inhibition at 5 µM (hTRPV1 [1]) [%] | further results |
| --- | --- | --- | --- |
| COc1ccc(-n2nc(C(C)(C)C)cc2CNC(=O)C(C)c2ccc(NS(C)(=O)=O)c(F)c2)cc1 (stereo not shown) [Compound 9] | dramatic reduction in activity |  |  |
| CC(C(=O)NCc1cc(C(C)(C)C)nn1-c1ccc(C(C)(C)C)cc1)c1ccc(NS(C)(=O)=O)c(F)c1 (stereo not shown) [Compound 11] | dramatic reduction in activity |  |  |
| Cc1ccc(/C=C/c2ccc(-n3nc(C(C)(C)C)cc3CNC(=O)C(C)c3ccc(NS(C)(=O)=O)c(F)c3)cc2)cc1 (stereo not shown) [Compound 12] | dramatic reduction in activity |  |  |
| C[C@H](C(=O)NCc1cc(C(C)(C)C)nn1-c1cccc(Cl)c1)c1ccc(NS(C)(=O)=O)c(F)c1 [Compound 13S] |  |  | IC50 (hTRPV1 [2]): > 5000 nM |
| C[C@H](C(=O)NCc1cc(C(C)(C)C)nn1-c1ccc(F)c(Cl)c1)c1ccc(NS(C)(=O)=O)c(F)c1 [Compound 14S] | high potency |  |  |
| CC(C(=O)NCc1cc(C(C)(C)C)nn1-c1ccc(F)c(Cl)c1)c1ccc(NS(C)(=O)=O)c(F)c1 (stereo not shown) [Compound 14] | high potency |  |  |
| CC(C)(C)c1cc(CNC(=O)C(c2ccc(NS(C)(=O)=O)c(F)c2)C2CCCCC2)n(-c2cccc(Cl)c2)n1 (stereo not shown) [Compound 17] |  | 46 |  |
| Cc1ccc(C(C(=O)NCc2cc(C(C)(C)C)nn2-c2cccc(Cl)c2)c2ccc(NS(C)(=O)=O)c(F)c2)cc1 (stereo not shown) [Compound 18] |  | 12 |  |
| CC(C)(C)c1cc(CNC(=O)C(c2cccc(F)c2)c2ccc(NS(C)(=O)=O)c(F)c2)n(-c2cccc(Cl)c2)n1 (stereo not shown) [Compound 19] |  | 49 |  |
| CC1CCN(c2nc(C(F)(F)F)ccc2CNC(=O)[C@@H](C)c2ccc(NS(C)(=O)=O)c(F)c2)CC1 [GRT12360] |  |  | IC50 (hTRPV1 [3]): 0.8 nM |
